# Read-outs that look alike come from different tables or passages of the source.
# Key:
# S. pyogenes ATCC 49399 = assay: MIC against S. pyogenes; type: cell-based; conditions: Streptococcus pyogenes, ATCC49399
# C. difficile ATCC 43255 = assay: Time-kill assay; type: cell-based, Clostridioides difficile
# Gram-negative bacteria = type: cell-based
# E. faecalis = assay: MIC against E. faecalis strains; type: cell-based; conditions: Enterococcus faecalis, E. faecalis 99 (Van R); read-out: MIC
# [1] = test system: Bifidobacterium longum HM-846; conditions: cited from earlier work
# C. difficile strains = conditions: cited from earlier work
# [2] = C. difficile strains of Table 4
smiles,measurement,setting,value
"O=[N+]([O-])c1cnc(-c2nc(-c3ccc(OC4CCCC4)cc3)no2)[nH]1 [Compound 57, 3-(4-(Cyclopentyloxy)phenyl)-5-(4-nitro-1H-imidazol-2-yl)-1,2,4-oxadiazole]",MIC,S. pyogenes ATCC 49399,> 128 µg/mL
same,reduction in bacterial growth (time-kill),"C. difficile ATCC 43255; 4× MIC, 12 h",≥ 3 log10
same,reduction in bacterial growth (time-kill),C. difficile ATCC 43255; 8× MIC,4 log 10
same,reduction in bacterial growth (time-kill),"C. difficile ATCC 43255; all concentrations: 1×, 2×, 4×, 8× MIC",Four-log10 reduction
same,activity against Gram-negative organisms,Gram-negative bacteria,no activity
same,MIC,E. faecalis,128 µg/mL
"CCc1c(Cl)c(O)c(Cl)c(O)c1C(=O)O[C@H]1[C@H](O)[C@H](OC)[C@H](OC/C2=C\C=C\C[C@H](O)/C(C)=C/[C@H](CC)[C@@H](O[C@@H]3OC(C)(C)[C@@H](OC(=O)C(C)C)[C@H](O)[C@@H]3O)/C(C)=C/C(C)=C/C[C@@H]([C@@H](C)O)OC2=O)O[C@@H]1C [FDX, fidaxomicin]",MIC,[1],<0.01 µg/mL
same,IMIC50 (101 strains),C. difficile strains; 101 C. difficile strains,0.06 µg/mL
same,MIC90 (101 strains),C. difficile strains; 101 C. difficile strains,0.25 µg/mL
same,MIC,"C. difficile strains; C. difficile 23828, resistant to FDX",>8 µg/mL
same,MIC,"C. difficile strains; C. difficile 24531, resistant to VAN",0.01 µg/mL
same,MIC,"C. difficile strains; C. difficile 26675, resistant to MTZ",4 µg/mL
same,MIC,C. difficile strains; C. difficile BAA-1803,1 µg/mL
same,MIC,C. difficile strains; C. difficile BAA-1870,0.25 µg/mL
same,MIC,C. difficile strains; C. difficile NR49292,0.5 µg/mL
same,MIC,C. difficile strains; C. difficile NR49294,0.01 µg/mL
same,MIC,C. difficile strains; C. difficile NR49302,0.03 µg/mL
same,MIC,C. difficile strains; C. difficile NR49305,0.01 µg/mL
same,MIC,C. difficile strains; C. difficile NR49310,≤0.01 µg/mL
same,MIC,C. difficile strains; C. difficile NR49318,0.125 µg/mL
same,MIC50,C. difficile strains; [2],0.06 µg/mL
same,MIC90,C. difficile strains; [2],0.25 µg/mL
same,MIC,C. difficile strains; strain ATCC43598,0.01 µg/mL
same,MIC,C. difficile strains; strain BAA-1801,0.125 µg/mL
same,MIC,C. difficile strains; strain BAA-1803,1 µg/mL
same,MIC,C. difficile strains; strain BAA-1804,0.125 µg/mL
same,MIC,C. difficile strains; strain BAA-1812,0.015 µg/mL
same,MIC,C. difficile strains; strain BAA-1814,0.03 µg/mL
same,MIC,C. difficile strains; strain BAA-1870,0.25 µg/mL
same,MIC,C. difficile strains; strain HM-88,0.03 µg/mL
same,MIC,C. difficile strains; strain HM-89,0.03 µg/mL
same,MIC,C. difficile strains; strain HM-745,0.125 µg/mL
same,MIC,C. difficile strains; strain HM-746,≤0.03 µg/mL
same,MIC,C. difficile strains; strain HM-747,0.06 µg/mL
same,MIC,C. difficile strains; strain NR49292,0.5 µg/mL
same,MIC,C. difficile strains; strain NR49294,0.01 µg/mL
same,MIC,C. difficile strains; strain NR49302,0.03 µg/mL
same,MIC,C. difficile strains; strain NR49305,0.01 µg/mL
same,MIC,C. difficile strains; strain NR49310,≤0.01 µg/mL
same,MIC,C. difficile strains; strain NR49318,0.125 µg/mL
same,MIC,C. difficile strains; strain NR-13427,0.03 µg/mL
same,MIC,C. difficile strains; strain NR-13428,≤0.03 µg/mL
same,MIC,C. difficile strains; strain NR-13429,0.25 µg/mL
same,MIC,C. difficile strains; strain NR-13430,≤0.03 µg/mL
same,MIC,C. difficile strains; strain NR-13431,0.125 µg/mL
same,MIC,C. difficile strains; strain NR-13433,0.125 µg/mL
same,MIC,C. difficile strains; strain NR-13434,0.06 µg/mL
same,MIC,C. difficile strains; strain NR-13435,≤0.03 µg/mL
same,MIC,C. difficile strains; strain NR-13436,0.125 µg/mL
same,MIC,C. difficile strains; strain NR-13437,0.25 µg/mL
same,MIC,C. difficile strains; strain NR-13438,0.06 µg/mL
same,MIC,C. difficile strains; strain NR-13553,≤0.03 µg/mL
same,MIC,C. difficile strains; strain NR-32882,0.06 µg/mL
same,MIC,C. difficile strains; strain NR-32883,0.125 µg/mL
same,MIC,C. difficile strains; strain NR-32884,0.03 µg/mL
same,MIC,C. difficile strains; strain NR-32885,0.25 µg/mL
same,MIC,C. difficile strains; strain NR-32886,0.03 µg/mL
same,MIC,C. difficile strains; strain NR-32887,0.125 µg/mL
same,MIC,C. difficile strains; strain NR-32888,0.03 µg/mL
same,MIC,C. difficile strains; strain NR-32889,0.25 µg/mL
same,MIC,C. difficile strains; strain NR-32890,0.06 µg/mL
same,MIC,C. difficile strains; strain NR-32891,0.03 µg/mL
same,MIC,C. difficile strains; strain NR-32892,0.03 µg/mL
same,MIC,C. difficile strains; strain NR-32895,0.03 µg/mL
same,MIC,C. difficile strains; strain NR-32896,0.03 µg/mL
same,MIC,C. difficile strains; strain NR-32897,0.03 µg/mL
same,MIC,C. difficile strains; strain NR-32900,0.03 µg/mL
same,MIC,C. difficile strains; strain NR-32903,0.03 µg/mL
same,MIC,C. difficile strains; strain NR-32904,0.03 µg/mL
same,MIC,C. difficile strains; strain NR-49277,0.06 µg/mL
same,MIC,C. difficile strains; strain NR-49278,0.25 µg/mL
same,MIC,C. difficile strains; strain NR-49279,0.25 µg/mL
same,MIC,C. difficile strains; strain NR-49280,0.125 µg/mL
same,MIC,C. difficile strains; strain NR-49281,0.25 µg/mL
same,MIC,C. difficile strains; strain NR-49282,0.06 µg/mL
same,MIC,C. difficile strains; strain NR-49283,0.03 µg/mL
same,MIC,C. difficile strains; strain NR-49284,0.06 µg/mL
same,MIC,C. difficile strains; strain NR-49285,0.06 µg/mL
same,MIC,C. difficile strains; strain NR-49286,0.25 µg/mL
same,MIC,C. difficile strains; strain NR-49287,0.25 µg/mL
same,MIC,C. difficile strains; strain NR-49288,0.25 µg/mL
same,MIC,C. difficile strains; strain NR-49289,0.03 µg/mL
same,MIC,C. difficile strains; strain NR-49290,0.06 µg/mL
same,MIC,C. difficile strains; strain NR-49291,0.25 µg/mL
same,MIC,C. difficile strains; strain NR-49293,≤0.03 µg/mL
same,MIC,C. difficile strains; strain NR-49295,≤0.03 µg/mL
same,MIC,C. difficile strains; strain NR-49296,≤0.03 µg/mL
same,MIC,C. difficile strains; strain NR-49297,0.0125 µg/mL
same,MIC,C. difficile strains; strain NR-49298,0.125 µg/mL
same,MIC,C. difficile strains; strain NR-49299,0.125 µg/mL
same,MIC,C. difficile strains; strain NR-49300,0.03 µg/mL
same,MIC,C. difficile strains; strain NR-49301,0.03 µg/mL
same,MIC,C. difficile strains; strain NR-49303,0.03 µg/mL
same,MIC,C. difficile strains; strain NR-49304,0.06 µg/mL
same,MIC,C. difficile strains; strain NR-49306,0.03 µg/mL
same,MIC,C. difficile strains; strain NR-49307,0.03 µg/mL
same,MIC,C. difficile strains; strain NR-49308,0.125 µg/mL
same,MIC,C. difficile strains; strain NR-49309,0.03 µg/mL
same,MIC,C. difficile strains; strain NR-49311,0.03 µg/mL
same,MIC,C. difficile strains; strain NR-49312,0.125 µg/mL
same,MIC,C. difficile strains; strain NR-49313,0.03 µg/mL
same,MIC,C. difficile strains; strain NR-49314,0.25 µg/mL
same,MIC,C. difficile strains; strain NR-49315,0.06 µg/mL
same,MIC,C. difficile strains; strain NR-49316,0.125 µg/mL
same,MIC,C. difficile strains; strain NR-49317,0.06 µg/mL
same,MIC,C. difficile strains; strain NR-49319,0.125 µg/mL
same,MIC,C. difficile strains; strain NR-49320,0.125 µg/mL
same,MIC,C. difficile strains; strain NR-49321,0.125 µg/mL
same,MIC,C. difficile strains; strain NR-49323,≤0.03 µg/mL
same,MIC,C. difficile strains; strain NR-49324,0.06 µg/mL
same,MIC,C. difficile strains; strain NR-49325,0.03 µg/mL
same,MIC,C. difficile strains; strain NR-49326,0.03 µg/mL
same,MIC,C. difficile strains; strain NR-49327,0.03 µg/mL
same,MIC,C. difficile strains; strain NR-49328,0.03 µg/mL
same,MIC,C. difficile strains; strain NR-49329,0.03 µg/mL
same,MIC,C. difficile strains; strain RMA23691,4 µg/mL
same,MIC,C. difficile strains; strain RMA23828,>8 µg/mL
same,MIC,C. difficile strains; strain RMA24531,0.01 µg/mL
same,MIC,C. difficile strains; strain RMA24923,0.06 µg/mL
same,MIC,C. difficile strains; strain RMA26675,4 µg/mL
same,MIC,C. difficile strains; strain RMA27081,>8 µg/mL
same,MIC,C. difficile strains; strain RMA27173,0.01 µg/mL
same,activity against Gram-negative organisms,Gram-negative bacteria,no activity
